# Measurements reported in PubChem BioAssay (NCI).
#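 Grown in 96-well plates, cells were treated for 48 hours with each compound at five concentrations. Insufficient inhibition: endpoint recorded as highest concentration tested. TGI marks complete inhibition of growth.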
# What was measured:
# Experiment in all cases: growth of human tumour cells (NCI), 48 h
# [1] = system: OVCAR-8 ovarian
# [2] = system: MOLT-4 leukemia
# [3] = system: RXF 393 renal
# [4] = system: SK-MEL-5 melanoma
# [5] = system: K-562 leukemia
# [6] = system: HL-60(TB) leukemia
# [7] = system: TK-10 renal
# [8] = system: IGROV1 ovarian
# [9] = system: SF-268 CNS
# [10] = system: A549 NSCLC
# [11] = system: UO-31 renal
# [12] = system: COLO 205 colon
# [13] = system: MDA-MB-435
# [14] = system: KM12 colon
# [15] = system: U251 CNS
# [16] = system: MDA-N
# [17] = system: SK-MEL-28 melanoma
# [18] = system: BT-549 breast
# [19] = system: HOP-62 NSCLC
# [20] = system: HCT-116 colon
# [21] = system: EKVX NSCLC
# [22] = system: DU-145 prostate
# [23] = system: OVCAR-3 ovarian
# [24] = system: CCRF-CEM leukemia
# [25] = system: 786-0 renal
# [26] = system: NCI/ADR-RES ovarian
# [27] = system: SNB-75 CNS
# [28] = system: PC-3 prostate
# [29] = system: NCI-H23 lung
# [30] = system: MALME-3M melanoma
# [31] = system: OVCAR-5 ovarian
# [32] = system: SF-295 CNS
# [33] = system: NCI-H226 lung
# [34] = system: UACC-257 melanoma
# [35] = system: MCF7 breast
# [36] = system: SN12C renal
# [37] = system: SF-539 CNS
# [38] = system: SR leukemia
# [39] = system: SNB-19 CNS
# [40] = system: HOP-92 NSCLC
# [41] = system: T-47D breast
# [42] = system: RPMI-8226 leukemia
# [43] = system: ACHN renal
# [44] = system: SW-620 colon
# [45] = system: HCT-15 colon
# [46] = system: SK-OV-3 ovarian
# [47] = system: HS 578T breast
# [48] = system: M14 melanoma
# [49] = system: UACC-62 melanoma
# [50] = system: CAKI-1 renal
# [51] = system: NCI-H522 lung
# [52] = system: MDA-MB-231 breast
# [53] = system: LOX IMVI melanoma
# [54] = system: SK-MEL-2 melanoma
# [55] = system: HT29 colon
# [56] = system: OVCAR-4 ovarian
structure (smiles),measurement,setting,value
Cc1ccc(C)n2c1nc1cc3ccccc3cc12,TGI,[1],> 100 µM
same,TGI,[2],95.1 µM
same,TGI,[3],> 100 µM
same,TGI,[4],93 µM
same,TGI,[5],> 100 µM
same,TGI,[6],> 100 µM
same,TGI,[7],> 100 µM
same,TGI,[8],> 100 µM
same,TGI,[9],> 100 µM
same,TGI,[10],> 100 µM
same,TGI,[11],94.4 µM
same,TGI,[12],> 100 µM
same,TGI,[13],> 100 µM
same,TGI,[14],> 100 µM
same,TGI,[15],> 100 µM
same,TGI,[16],> 100 µM
same,TGI,[17],> 100 µM
same,TGI,[18],> 100 µM
same,TGI,[19],> 100 µM
same,TGI,[20],> 100 µM
same,TGI,[21],> 100 µM
same,TGI,[22],> 100 µM
same,TGI,[23],> 100 µM
same,TGI,[24],> 100 µM
same,TGI,[25],> 100 µM
same,TGI,[26],> 100 µM
same,TGI,[27],57.6 µM
same,TGI,[28],> 100 µM
same,TGI,[29],> 100 µM
same,TGI,[30],> 100 µM
same,TGI,[31],> 100 µM
same,TGI,[32],> 100 µM
same,TGI,[33],> 100 µM
same,TGI,[34],> 100 µM
same,TGI,[35],16 µM
same,TGI,[36],> 100 µM
same,TGI,[37],> 100 µM
same,TGI,[38],> 100 µM
same,TGI,[39],> 100 µM
same,TGI,[40],> 100 µM
same,TGI,[41],> 100 µM
same,TGI,[42],> 100 µM
same,TGI,[43],> 100 µM
same,TGI,[44],> 100 µM
same,TGI,[45],> 100 µM
same,TGI,[46],> 100 µM
same,TGI,[47],> 100 µM
same,TGI,[48],> 100 µM
same,TGI,[49],57.1 µM
COc1ccc(C(OCC2OC3(COC(c4ccccc4)(c4ccc(OC)cc4)c4ccc(OC)cc4)C(Oc4nc(=O)ccn43)C2O)(c2ccccc2)c2ccc(OC)cc2)cc1 (stereo not drawn),TGI,[1],> 100 µM
same,TGI,[2],> 100 µM
same,TGI,[3],> 100 µM
same,TGI,[4],> 100 µM
same,TGI,[5],> 100 µM
same,TGI,[6],> 100 µM
same,TGI,[7],> 100 µM
same,TGI,[8],> 100 µM
same,TGI,[9],> 100 µM
same,TGI,[10],> 100 µM
same,TGI,[11],> 100 µM
same,TGI,[12],> 100 µM
same,TGI,[13],> 100 µM
same,TGI,[14],> 100 µM
same,TGI,[15],> 100 µM
same,TGI,[16],> 100 µM
same,TGI,[17],> 100 µM
same,TGI,[18],> 100 µM
same,TGI,[19],> 100 µM
same,TGI,[20],> 100 µM
same,TGI,[21],> 100 µM
same,TGI,[22],> 100 µM
same,TGI,[50],> 100 µM
same,TGI,[23],> 100 µM
same,TGI,[24],> 100 µM
same,TGI,[25],> 100 µM
same,TGI,[51],> 100 µM
same,TGI,[52],> 100 µM
same,TGI,[26],> 100 µM
same,TGI,[28],> 100 µM
same,TGI,[29],> 100 µM
same,TGI,[30],> 100 µM
same,TGI,[31],> 100 µM
same,TGI,[32],> 100 µM
same,TGI,[33],> 100 µM
same,TGI,[34],> 100 µM
same,TGI,[35],> 100 µM
same,TGI,[36],> 100 µM
same,TGI,[37],> 100 µM
same,TGI,[38],> 100 µM
same,TGI,[53],> 100 µM
same,TGI,[39],> 100 µM
same,TGI,[54],> 100 µM
same,TGI,[41],> 100 µM
same,TGI,[55],> 100 µM
same,TGI,[42],> 100 µM
same,TGI,[43],> 100 µM
same,TGI,[44],> 100 µM
same,TGI,[45],> 100 µM
same,TGI,[46],> 100 µM
same,TGI,[56],> 100 µM
same,TGI,[47],51.8 µM
same,TGI,[48],> 100 µM
same,TGI,[49],> 100 µM
